How the values were obtained:
[1] = molecular target: T1, B-RAF G466V (Homo sapiens, UniProt P15056, G466V); test: Target protein degradation, assay D: T-Rex 293 cells, HA-BRAF_G466V, 384 well format; assay type: cell-based; conditions: T-Rex 293 HA-BRAF_G466V cells, 24 hours, Examples 83-269; for DC50: Assay D; for Dmax: T-REx-293, Assay D
T1 construct: expressed in transfected cells; host or cells: T-Rex 293 cells (Invitrogen #R71007)
Description: D. T-Rex 293 Cells (384 Well Format)
(§1) T-Rex 293 cells were purchased from Invitrogen (#R71007), and stably transfected with a pcDNA4/TO_HA-BRAF_G466V construct, using 400 ug Zeocin for selection. G466V cells are plated in DMEM media (Gibco #11965118) containing 10% FBS (Gibco #16000044), 1% penicillin-streptomycin (ThermoFisher #15140122), 1:250 zeocin (Invitrogen #R-25005), and 1 ng/mL doxycycline (Selleckchem #4163) at a density of 7,500 cells/well in 45 μl on PDL coated, black clear bottom 384 well plates (Corning #354663) and incubated at 37° C.+5% CO2 for 24 hours. The following day, PROTAC compounds in a 1:3 11 point dilution are diluted into DMEM media using an Agilent Bravo. 5 ul of PROTACs suspended in DMEM media are added to the cells, with a final assay concentration ranging from 300 nM to 5 pM in 0.5% DMSO. Plates are incubated at 37° C.+5% CO2 for 24 hours. At the end of treatment, media is aspirated, and cells are fixed in 50 uL 4% PFA (EMS #15710) in PBS++(PBS, 1 mM CaCl, 1 mM MgCl) at RT for 15 minutes. Cells are washed 2× with 60 uL PBS++ and permeabilized in 50 uL 1% Triton X-100 (Sigma #93443) in PBS++ for 5 minutes at RT. Cells are washed in PBS++ prior to blocking with 50 uL Licor blocking buffer (Licor #927-60001) for 1 hour at RT. HA-tagged BRAF was stained using 50 uL HA antibody (CST #3724) at 1:1000 in Licor blocking buffer for two hours at RT. Primary is aspirated before adding 50 ul of secondary antibody solution containing 1:1000 Hoechst (ThermoFisher #62249), 1:1000 HCS CellMask Deep Red Stain (ThermoFisher #H32721), and 1:5000 goat anti-rabbit IgG Alexa-Fluor 488 (ThermoFisher #A32731) in PBS++ for 1 hr at RT. Plates are washed 4× with 60 uL PBS++, then sealed with Adhesive Black Light Absorbing Film (VWR #89087-692) and imaged on the ThermoFisher CX7 PRO high content instrument. BRAF intensity is quantified in HCS Studio software (ThermoFisher), using a custom script, exported, analyzed using KNIME, and curve curation is performed in an ELN (Scilligence). Cell toxicity is measured via comparing number of nuclei in PROTAC treated wells to DMSO controls.
(§2) The concentration of an exemplary compound that leads to half maximal degradation (DC50) as well as the maximum degradation observed (Dmax, conventionally expressed as a percentage of control) is shown below in Table 2.

[2] = molecular target: T2, B-RAF V600E (Homo sapiens, UniProt P15056, V600E); test: Target protein degradation, assay C: T-Rex 293 cells, HA-BRAF_V600E, 384 well format; assay type: cell-based; conditions: T-Rex 293 HA-BRAF_V600E cells, 24 hours, Examples 83-269; for Dmax: T-REx-293, Assay C
T2 construct: expressed in transfected cells; host or cells: T-Rex 293 cells (Invitrogen #R71007)
Description: C. T-Rex 293 Cells (384 Well Format)
as §1, with “pcDNA4/TO_HA-BRAF_V600E” for “pcDNA4/TO_HA-BRAF_G466V”, “V600E” for “G466V”
as §2

T1 sequence (P15056 whole entry G466V): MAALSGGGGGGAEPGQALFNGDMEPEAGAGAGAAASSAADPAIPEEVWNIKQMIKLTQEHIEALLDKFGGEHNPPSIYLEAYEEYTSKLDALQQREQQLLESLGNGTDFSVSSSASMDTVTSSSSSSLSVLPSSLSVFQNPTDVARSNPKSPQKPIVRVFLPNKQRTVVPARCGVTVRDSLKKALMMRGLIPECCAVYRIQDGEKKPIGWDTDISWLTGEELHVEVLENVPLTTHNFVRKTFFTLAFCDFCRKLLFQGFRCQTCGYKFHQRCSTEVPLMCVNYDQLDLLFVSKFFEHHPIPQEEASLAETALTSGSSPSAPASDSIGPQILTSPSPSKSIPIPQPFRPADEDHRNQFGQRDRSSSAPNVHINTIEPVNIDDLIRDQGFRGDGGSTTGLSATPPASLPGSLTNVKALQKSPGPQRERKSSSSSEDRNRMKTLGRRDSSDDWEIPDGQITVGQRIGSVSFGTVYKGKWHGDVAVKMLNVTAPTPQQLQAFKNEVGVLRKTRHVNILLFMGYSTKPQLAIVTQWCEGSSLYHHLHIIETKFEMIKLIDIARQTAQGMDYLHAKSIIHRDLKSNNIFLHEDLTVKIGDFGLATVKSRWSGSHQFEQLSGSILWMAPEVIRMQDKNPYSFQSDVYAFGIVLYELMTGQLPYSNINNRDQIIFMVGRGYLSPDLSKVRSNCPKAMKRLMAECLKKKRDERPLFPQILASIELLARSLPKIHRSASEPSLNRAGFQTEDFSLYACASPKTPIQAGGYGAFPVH
T2 sequence (P15056 whole entry V600E): as the sequence (P15056 whole entry G466V) above, with V466G, V600E counted along it

SMILES	DC50 [1]	Dmax [1]	DC50 ([2]; Assay C)	Dmax [2]	B-RAF V600E DMax (%) ([2]; Assay C)
Cc1c(N2CCC(CN3CCN(c4ccc(-n5cnc6ccc(Oc7c(F)ccc(NS(=O)(=O)N8CC[C@@H](F)C8)c7C#N)cc6c5=O)cc4)CC3)CC2)ccc2c1CN(C1CCC(=O)NC1=O)C2=O (single isomer, unassigned) [Example 111, (3R)-N-(2-cyano-3-{[3-(4-{4-[(1-{2-[(3R*)-2,6-dioxopiperidin-3-yl]-4-methyl-1-oxo-2,3-dihydro-1H-isoindol-5-yl}piperidin-4-yl)methyl]piperazin-1-yl}phenyl)-4-oxo-3,4-dihydroquinazolin-6-yl]oxy}-4-fluorophenyl)-3-fluoropyrrolidine-1-sulfonamide]	1 to 10 nM	35 to 70%	50 to 500 nM	35 to 70%	–
N#Cc1c(NS(=O)(=O)N2CC[C@@H](F)C2)ccc(F)c1Oc1ccc2ncn(-c3ccc(N4CCN(CC5CCN(c6ccc(C7CCC(=O)NC7=O)cc6F)CC5)CC4)cc3)c(=O)c2c1 (single isomer, unassigned) [Example 112, (3R)-N-(2-cyano-3-{[3-(4-{4-[(1-{4-[(3R*)-2,6-dioxopiperidin-3-yl]-2-fluorophenyl}piperidin-4-yl)methyl]piperazin-1-yl}phenyl)-4-oxo-3,4-dihydroquinazolin-6-yl]oxy}-4-fluorophenyl)-3-fluoropyrrolidine-1-sulfonamide]	1 to 10 nM	35 to 70%	5 to 50 nM	35 to 70%	–
Cc1cc(N2CCC(CN3CCN(c4ccc(-n5cnc6ccc(Oc7c(F)ccc(NS(=O)(=O)N8CC[C@@H](F)C8)c7C#N)cc6c5=O)cc4)CC3)CC2)c(F)c2c1C(=O)N(C1CCC(=O)NC1=O)C2 (single isomer, unassigned) [Example 120, (3R)-N-(2-cyano-3-{[3-(4-{4-[(1-{2-[(3R*)-2,6-dioxopiperidin-3-yl]-4-fluoro-7-methyl-1-oxo-2,3-dihydro-1H-isoindol-5-yl}piperidin-4-yl)methyl]piperazin-1-yl}phenyl)-4-oxo-3,4-dihydroquinazolin-6-yl]oxy}-4-fluorophenyl)-3-fluoropyrrolidine-1-sulfonamide]	–	–	5 to 50 nM	≤ 35%	–
Cc1cc(N2CCC(CN3CCN(c4ccc(-n5cnc6ccc(Oc7c(F)ccc(NS(=O)(=O)N8CC[C@@H](F)C8)c7C#N)cc6c5=O)cc4)CC3)CC2)c(F)c2c1C(=O)N(C1CCC(=O)NC1=O)C2 (single isomer, unassigned) [Example 121, (3R)-N-(2-cyano-3-{[3-(4-{4-[(1-{2-[(3R*)-2,6-dioxopiperidin-3-yl]-4-fluoro-7-methyl-1-oxo-2,3-dihydro-1H-isoindol-5-yl}piperidin-4-yl)methyl]piperazin-1-yl}phenyl)-4-oxo-3,4-dihydroquinazolin-6-yl]oxy}-4-fluorophenyl)-3-fluoropyrrolidine-1-sulfonamide]	–	–	50 to 500 nM	–	B (35 < B < 70)
CCN(C)S(=O)(=O)Nc1ccc(F)c(Oc2ccc3ncn(-c4ccc(N5CCC(CN6CCC(c7ccc8c(c7)CN(C7CCC(=O)NC7=O)C8=O)CC6)CC5)cc4)c(=O)c3c2)c1C#N (centres unmarked) [Example 115, 2-[(3-{4-[4-({4-[2-(2,6-dioxopiperidin-3-yl)-1-oxo-2,3-dihydro-1H-isoindol-5-yl]piperidin-1-yl}methyl)piperidin-1-yl]phenyl}-4-oxo-3,4-dihydroquinazolin-6-yl)oxy]-6-{[ethyl(methyl)sulfamoyl]amino}-3-fluorobenzonitrile]	–	–	50 to 500 nM	35 to 70%	–
N#Cc1c(NS(=O)(=O)N2CC[C@@H](F)C2)ccc(F)c1Oc1ccc2ncn(-c3ccc(N4CCN(CC5CCN(c6ccc7c(c6)CN(C6CCC(=O)NC6=O)C7=O)CC5)CC4)s3)c(=O)c2c1 (stereo partly drawn) [Example 116, (3R)-N-{2-cyano-3-[(3-{5-[4-({1-[2-(2,6-dioxopiperidin-3-yl)-1-oxo-2,3-dihydro-1H-isoindol-5-yl]piperidin-4-yl}methyl)piperazin-1-yl]thiophen-2-yl}-4-oxo-3,4-dihydroquinazolin-6-yl)oxy]-4-fluorophenyl}-3-fluoropyrrolidine-1-sulfonamide]	–	–	50 to 500 nM	≤ 35%	–
C[C@H]1CN(CC2CCN(c3ccc4c(c3F)CN([C@H]3CCC(=O)NC3=O)C4=O)CC2)CCN1c1ccc(-n2cnc3ccc(Oc4c(F)ccc(NS(=O)(=O)N5CC[C@@H](F)C5)c4C#N)cc3c2=O)cc1 [Example 117, (3R)-N-{2-cyano-3-[(3-(4-[(2S)-4-[(1-{2-[(3S)-2,6-dioxopiperidin-3-yl]-4-fluoro-1-oxo-2,3-dihydro-1H-isoindol-5-yl}piperidin-4-yl)methyl]-2-methylpiperazin-1-yl]phenyl}-4-oxo-3,4-dihydroquinazolin-6-yl)oxy]-4-fluorophenyl}-3-fluoropyrrolidine-1-sulfonamide]	–	–	50 to 500 nM	35 to 70%	–
C[C@H]1CN(CC2CCN(c3ccc4c(c3F)CN([C@@H]3CCC(=O)NC3=O)C4=O)CC2)CCN1c1ccc(-n2cnc3ccc(Oc4c(F)ccc(NS(=O)(=O)N5CC[C@@H](F)C5)c4C#N)cc3c2=O)cc1 [Example 118, (3R)-N-{2-cyano-3-[(3-(4-[(2S)-4-[(1-{2-[(3R)-2,6-dioxopiperidin-3-yl]-4-fluoro-1-oxo-2,3-dihydro-1H-isoindol-5-yl}piperidin-4-yl)methyl]-2-methylpiperazin-1-yl]phenyl}-4-oxo-3,4-dihydroquinazolin-6-yl)oxy]-4-fluorophenyl}-3-fluoropyrrolidine-1-sulfonamide]	–	–	> 500 nM	–	–
N#Cc1c(NS(=O)(=O)N2CC[C@@H](F)C2)ccc(F)c1Oc1ccc2ncn(-c3ccc(N4CCC(CN5CC6(CC(c7ccc8c(c7)C(=O)N(C7CCC(=O)NC7=O)C8=O)C6)C5)CC4)cc3)c(=O)c2c1 (stereo partly drawn) [Example 119, (3R)-N-{2-cyano-3-[(3-{4-[4-({6-[2-(2,6-dioxopiperidin-3-yl)-1,3-dioxo-2,3-dihydro-1H-isoindol-5-yl]-2-azaspiro[3.3]heptan-2-yl}methyl)piperidin-1-yl]phenyl}-4-oxo-3,4-dihydroquinazolin-6-yl)oxy]-4-fluorophenyl}-3-fluoropyrrolidine-1-sulfonamide]	–	–	> 500 nM	–	–

— patent US11957759B1, “Rapidly accelerated fibrosarcoma (RAF) degrading compounds and associated methods of use” (Arvinas Operations, Inc., priority 2022, dated 2024)
